Laboratory results published in patent US20160250285A1, “NEUROPROTECTIVE PEPTIDES” (priority 2013, published 2016).
Read-outs that look alike come from different tables or passages of the source. Peptide text beside a SMILES is read from it.

Legend:
[1] = system: primary cortical neuronal cultures; conditions: for neuroprotection, milder insult: FIG. 1i, comparison at 0.5 μM and 1 μM; for neuroprotection (neuronal viability): peptide 15 min prior to and during glutamic acid exposure, viability 24 h, MTS
Experimental: Briefly, cortical tissue from E18-E19 Sprague-Dawley rats was dissociated in Dulbecco's modified Eagle medium (DMEM; Invitrogen, Australia) supplemented with 1.3 mM L-cysteine, 0.9 mM NaHCOa, 10 units/ml papain (Sigma, USA) and 50 units/ml DNase (Sigma) and washed in cold DMEM/10% horse serum. Neurons were resuspended in Neurobasal (Invitrogen) containing 2% B27 supplement (B27; Invitrogen). Before seeding, 96-well sized glass wells (6 mm diameter, ProTech, Australia) or 96-well plastic plates (ProSciTech, Australia) were coated with poly-D-lysine overnight ([…]: 50 mg/mL; 70-150 K, Sigma). […] Neurons were plated to obtain ≈10,000 viable neurons for each well on day in vitro 11-12. […] On day in vitro 4 one third of the culture medium was removed and replaced with fresh Neurobasal/2% B27 containing the mitotic inhibitor, cytosine arabinofuraNOside (1 mM final concentration; Sigma). On day in vitro 8 one half of the culture medium was replaced with Neurobasal/2% B27.
To induce excitotoxicity, 50 μl of Neurobasal/2% B27 containing glutamic acid (200 μM) or kainic acid (400 μM) or NMDA (200 μM) was added to the culture wells (100 μM glutamic acid, 200 μM kainic acid and NMDA 100 μM final concentration). Cultures were incubated at 37° C. in the CO2 incubator for 5 minutes for glutamic acid, 45 minutes for kainic acid and 10 minutes for NMDA exposure, after which time the media was replaced with 100 μl of 50% Neurobasal/2% N2 supplement (Invitrogen) and 50% balanced salt solution (BSS; see below). Cultures were incubated for a further 24 hours at 37° C. in the CO2 incubator. The untreated controls with or without glutamic acid or kainic acid treatment received the same wash steps and media additions.
Following this step, cultures were treated as described above. Untreated controls with or without glutamic acid exposure received the same wash steps and media additions. In addition, a post-glutamic acid exposure CPP treatment (5 μM) experiment was performed for the R9 peptide and the JNKI-1D-TAT control peptide.
For pre-glutamic acid exposure experiments, neurons were exposed to peptide(s) for a 10 minute period, immediately before or 1, 2, 3, 4 or 5 hours prior to glutamic acid exposure. […] At the relevant peptide pre-treatment time, media was removed and replaced with 100 μl of Neurobasal/2%. […] Following 5-minute glutamic acid exposure, neuronal culture wells were treated as described above. For all experiments untreated controls with or without glutamic acid treatment underwent the same incubation steps and media additions.
Heparin (for injection) was obtained from Pfizer (1000 IU/ml). Two different heparin experiments were performed: 1. Peptides were incubated with heparin (20 IU/ml) in Neurobasal/B27 for 5 minutes at room temperature, before addition to culture wells (50 μl) for 15 minutes at 37° C. in the CO2 incubator. Following the incubation period, media in wells was removed and replaced with 100 μl of Neurobasal/2% B27 containing glutamic acid (100 μM), and subsequently treated as described above; 2. Media in wells was replaced with Neurobasal/2% B27 containing heparin (50 μl; 40 IU/ml) and incubated for 5 minutes at 37° C. in the CO2 incubator. After the incubation period, peptides or glutamate receptor blockers (MK801/CNQX) in Neurobasal/2% B27 (50 μl) were added to the culture wells and cultures incubated for a further 10 minutes at 37° C. in the CO2 incubator. Following the incubation period, media in wells was removed and replaced with 100 μl of Neurobasal/2% B27 containing glutamic acid (100 μM), and subsequently treated as described above. For all experiments, non-heparin treated peptide controls with glutamic acid treatment underwent the same incubation steps and media additions.
Twenty-four hours after insult, neuronal cultures were examined by light microscopy for qualitative assessment of neuronal cell viability.

[2] = system: intracellular calcium influx in neuronal cultures; test: Intracellular calcium influx (Fura-2 AM) after glutamic acid; type: cell-based, rat; conditions: peptide 5 μM for 10 min, removed before 100 μM glutamic acid (FIG. 44)
Experimental: Fura-2 AM was used for intracellular calcium assessment. Representative fluorescent Fura-2 AM tracers; fluorescence intensity (FI) of neuronal cultures 30 sec before and following addition (arrow) of glutamic acid (100 μM final concentration). Peptides or glutamate receptor blockers were added to neuronal cultures for 10 min and removed (time 0) before glutamic acid. Values are mean±SE; n=3. Peptide concentration was 5 μM.
Briefly, cortical tissue from E18-E19 Sprague-Dawley rats was dissociated in Dulbecco's modified Eagle medium (DMEM; Invitrogen, Australia) supplemented with 1.3 mM L-cysteine, 0.9 mM NaHCOa, 10 units/ml papain (Sigma, USA) and 50 units/ml DNase (Sigma) and washed in cold DMEM/10% horse serum. Neurons were resuspended in Neurobasal (Invitrogen) containing 2% B27 supplement (B27; Invitrogen). Before seeding, 96-well sized glass wells (6 mm diameter, ProTech, Australia) or 96-well plastic plates (ProSciTech, Australia) were coated with poly-D-lysine overnight (50 ml/well: 50 mg/mL; 70-150 K, Sigma). Excess poly-D-lysine solution was then removed and replaced with Neurobasal (containing 2% B27; 4% fetal bovine serum; 1% horse serum; 62.5 mM glutamate; 25 mM 2-mercaptoethanol; and 30 mg/mL streptomycin and 30 mg/mL penicillin). Neurons were plated to obtain ≈10,000 viable neurons for each well on day in vitro 11-12. Neuronal cultures were maintained in a CO2 incubator (5% CO2, 95% air balance, 98% humidity) at 37° C. On day in vitro 4 one third of the culture medium was removed and replaced with fresh Neurobasal/2% B27 containing the mitotic inhibitor, cytosine arabinofuraNOside (1 mM final concentration; Sigma). On day in vitro 8 one half of the culture medium was replaced with Neurobasal/2% B27. Cultures were used on day in vitro 11 or 12 after which time they routinely consist of >97% neurons and 1-3% astrocytes (Meloni et al. 2001).

[3] = system: primary cortical neuronal cultures; test: In vitro ischemia / oxygen-glucose deprivation (OGD) model, neurons; type: cell-based, rat
Experimental: Establishment of cortical cultures was as previously described (Meloni et al. 2001). Briefly, cortical tissue from E18-E19 Sprague-Dawley rats was dissociated in Dulbecco's modified Eagle medium (DMEM; Invitrogen, Australia) supplemented with 1.3 mM L-cysteine, 0.9 mM NaHCOa, 10 units/ml papain (Sigma, USA) and 50 units/ml DNase (Sigma) and washed in cold DMEM/10% horse serum. Neurons were resuspended in Neurobasal (Invitrogen) containing 2% B27 supplement (B27; Invitrogen). Before seeding, 96-well sized glass wells (6 mm diameter, ProTech, Australia) or 96-well plastic plates (ProSciTech, Australia) were coated with poly-D-lysine overnight (50 ml/well: 50 mg/mL; 70-150 K, Sigma). Excess poly-D-lysine solution was then removed and replaced with Neurobasal (containing 2% B27; 4% fetal bovine serum; 1% horse serum; 62.5 mM glutamate; 25 mM 2-mercaptoethanol; and 30 mg/mL streptomycin and 30 mg/mL penicillin). Neurons were plated to obtain ≈10,000 viable neurons for each well on day in vitro 11-12. Neuronal cultures were maintained in a CO2 incubator (5% CO2, 95% air balance, 98% humidity) at 37° C. On day in vitro 4 one third of the culture medium was removed and replaced with fresh Neurobasal/2% B27 containing the mitotic inhibitor, cytosine arabinofuraNOside (1 mM final concentration; Sigma). On day in vitro 8 one half of the culture medium was replaced with Neurobasal/2% B27. Cultures were used on day in vitro 11 or 12 after which time they routinely consist of >97% neurons and 1-3% astrocytes (Meloni et al. 2001).
The in vitro ischemia model used for primary cortical neuronal cultures was performed as previously described (Meloni et at 2011) Briefly, culture media was removed from wells (glass 96-well plate format) and washed with 315 μl of glucose free balanced salt solution (BSS; mM: 116 NaCl, 5.4 KCl, 1.8 CaCl2, 0.8 MgSO4, 1 NaH2PO4; pH 6.9) before the addition of 60 μl BSS containing cell penetrating or control peptides (see Table 1). A non-peptide positive control consisting of the glutamate receptor blockers (5 μM MK801/5 μM 6-cyano-7-nitroquinoxaline: MK801/CNQX) was also included. In vitro ischemia was initiated by placing wells in an anaerobic incubator (Don Whitely Scientific, England; atmosphere of 5% CO2, 10% H2 and 85% argon, 98% humidity) at 37° C. for 55 minutes. Upon removal from the anaerobic incubator, 60 μl of Neurobasal/2% N2 supplement was added to the wells and cultures incubated for a further 24 hours at 37° C. in the CO2 incubator. Control cultures received the same BSS wash procedures and media additions as ischemic treated cultures before incubation at 37° C. in the CO2 incubator.
Control cultures underwent the same BSS wash procedures and media additions as OGD treated cultures.
Twenty-four hours after insult, neuronal cultures were examined by light microscopy for qualitative assessment of neuronal cell viability. Neuronal viability was quantitatively measured by 3-(4,5,dimethyliazol-2-yl)-5-(3-carboxymethoxy-phenyl)-2-(4-sulfophenyl)-2H-tetrazolium salt (MTS) assay (Promega, Australia). The MTS assay measures the cellular conversion of the tetrazolium salt to a water-soluble brown formazan salt, which is detected spectrophotometrically at 490 nm. MTS absorbance data were converted to reflect proportional cell viability relative to both the untreated and treated controls, with the untreated control taken as 100% viability, and presented as mean±SEM. […] Viability data was analysed by ANOVA, followed by post-hoc Fischer's PLSD test, with P<0.05 values considered statistically significant. Four- to six wells were used in all assays.

N=C(N)NCCC[C@H](N)C(=O)O [Peptide R1, H-R-OH]
neuroprotection, milder insult [1]: ineffective
neuroprotection (neuronal viability) [1]: no to little neuroprotection
IC50 ([1]; read-out: IC50: Glutamic acid model, Table 4, polyarginine peptides, from dose response graph FIG. 1e): > 5 µM

N=C(N)NCCC[C@H](NC(=O)[C@H](CCCNC(=N)N)NC(=O)[C@@H](N)CCCNC(=N)N)C(=O)O [Peptide R3, H-RRR-OH] (H-Arg-Arg-Arg-OH)
IC50 [1]: > 5 µM
neuroprotection, milder insult [1]: ineffective
neuroprotection (neuronal viability) [1]: no to little neuroprotection

N=C(N)NCCC[C@H](NC(=O)[C@H](CCCNC(=N)N)NC(=O)[C@H](CCCNC(=N)N)NC(=O)[C@H](CCCNC(=N)N)NC(=O)[C@H](CCCNC(=N)N)NC(=O)[C@@H](N)CCCNC(=N)N)C(=O)O [Peptide R6, H-RRRRRR-OH]
IC50 [1]: > 5 µM
neuroprotection, milder insult [1]: ineffective

Ac-PLFAE-RRRRRRRRR-NH2 (Ac-PLFAERRRRRRRRR-NH2) [Cal/R9]
neuroprotection (neuronal viability) [1]: moderate to high level neuroprotection

GRKKRRQRRRG [TAT, the TAT peptide, reference compound]
neuroprotection when peptide washed-out prior to glutamic acid exposure ([1]; 15 min incubation, wash-out before insult (FIG. 1c)): loss of efficacy
calcium influx after glutamic acid [2]: to varying degrees reduced calcium influx

H-AAVALLPAVLLALLAP-OH [kFGF, reference compound]
neuroprotection (neuronal viability) [1]: ineffective

H-AAVALLPAVLLALLAP-PPRPKRPTTLNLFPQVPRSQDT-OH (H-AAVALLPAVLLALLAPPPRPKRPTTLNLFPQVPRSQDT-OH) [kFGF-JNKI-1, reference compound]
neuroprotection (neuronal viability) [1]: not neuroprotective

H-EEEEEEEEE-RRRRRRRRR-OH (H-EEEEEEEEERRRRRRRRR-OH) [E9/R9, reference compound]
neuroprotection (neuronal viability) ([1]; listed as E91R9): no protection

H-GRKKRRQRRR-PPRPKRPTTLNLFPQVPRSQDT-OH (H-GRKKRRQRRRPPRPKRPTTLNLFPQVPRSQDT-OH) [TAT-JNKI-1, reference compound]
neuroprotection (neuronal viability) [1]: neuroprotective
calcium influx after glutamic acid [2]: to varying degrees reduced calcium influx

H-KETWWETWWTEWSQPKKKRKV-NH2 [Pep-1, reference compound]
IC50 ([3]; 24 h): > 15 µM
lower concentrations at which neuroprotective ([3]; FIG. 3a): 1 to 5 µM
neuroprotection ([3]; peptide present during in vitro ischemia and at 50% dose after (FIG. 3a)): neuroprotective following in vitro ischemia at lower concentrations

H-RRERRRRSCAGCSRARGSCRSCRR-NH2 (cysteine pairing not given here) [NCXBP3]
neuroprotection (neuronal viability) [1]: high levels of protection

H-RRRRRRRR-OH [Peptide R8]
concentration at which (significant) neuroprotection displayed ([1]; dose response studies FIGS. 6, 7, 8): 5 µM
neuroprotection (neuronal viability) [1]: moderate to high level neuroprotection

H-RRRRRRRRRPGRVVGGRRRRRRRRR-OH [R9/tPA/R9]
IC50 [1]: 0.29 µM
order of potency ([1]; dose response studies, glutamate model): potency between R12 and R18
neuroprotection (neuronal viability) [1]: highly effective

H-YARAAARQARA-OH [PTD-4, reference compound]
neuroprotection (neuronal viability) [1]: little to no neuroprotective properties
neuroprotection (neuronal viability) ([1]; listed as PTA4): largely ineffective

PRRRRSSRRPVRRRRRPRVSRRRRRGGRRRR [Ptm2]
neuroprotection (neuronal viability) [1]: neuroprotective
neuroprotection when added for 15 minutes after OGD ([3]; FIGS. 31, 20, 22, 1 μM and 5 μM in FIG. 31): neuroprotective
neuroprotection in the OGD model (overall statement) ([3]; discussion summary): neuroprotective

PRRRRSSSRPVRRRRRPRVSRRRRRGGRRRR [Ptm3]
neuroprotection (neuronal viability) [1]: neuroprotective
